Experimental data reported in patent publication US12479843B2, “Spiro ring-containing quinazoline compounds” (WIGEN BIOMEDICINE TECHNOLOGY (SHANGHAI) CO., LTD., priority 2019, dated 2025).

Tested on: H358 cells
Experiment: Antiproliferative activity against H358 cells (Cell Titer Glow, ultra-low attachment plate)
Type: cell-based
Conditions: Homo sapiens, NCI-H358, 72 h, 96-well ultra-low attachment plate, three days after addition of compound, Cell Titer Glow
Description: 2500 H358 cells were seeded in a 96-well ultra-low attachment plate (corning, 7007). After one day of growth, a serially diluted compound (a maximum concentration of 5 μM, 5-fold dilution, a total of five doses) was added. Three days after the addition of the compound, Cell Titer Glow (Promega, G9681) was added to evaluate pellet growth, and the IC50 value was calculated.

Row | SMILES | IC50
1 | C=CC(=O)N1CC2(CCN(c3nc(N4CC(N5CC[C@H](C#N)C5)C4)nc4c(OCC(F)(F)F)c(-c5c(C)ccc6[nH]ncc56)c(C5CC5)cc34)CC2)C1 [Compound 257] | 300 to 1000 nM
2 | C=CC(=O)N1CC2(CCN(c3nc(N4CCC5(CN(CCOC)C5)C4)nc4c(OCC(F)(F)F)c(-c5c(C)ccc6[nH]ncc56)c(C5CC5)cc34)CC2)C1 [Compound 99] | < 300 nM
3 | C=CC(=O)N1CC2(CCN(c3nc(N4CC[C@@H](N5CCCCC5)C4)nc4c(OCC(F)(F)F)c(-c5c(C)ccc6[nH]ncc56)c(C5CC5)cc34)CC2)C1 [Compound 208] | < 300 nM
4 | C=C(F)C(=O)N1CC2(CCN(c3nc(N4CC5(CCN(CCCOC)CC5)C4)nc4c(OCC(F)(F)F)c(-c5c(C)ccc6[nH]ncc56)c(C5CC5)cc34)CC2)C1 [Compound 96] | < 300 nM
5 | C=CC(=O)N1CC2(CCN(c3nc(N4CC(N5CCCC5)C4)nc4c(OCC(F)(F)F)c(-c5c(C)c(F)cc6[nH]ncc56)c(C5CC5)cc34)CC2)C1 [Compound 220] | < 300 nM
6 | C=CC(=O)N1CC2(CCN(c3nc(OC4CC5CCC4N5C)nc4c(OCC(F)(F)F)c(-c5c(C)ccc6[nH]ncc56)c(C5CC5)cc34)CC2)C1 (stereo not drawn) [Compound 308] | < 300 nM
7 | C=CC(=O)N1CC2(CCN(c3nc(N4CC(N5CC(N(C)C)C5)C4)nc4c(OCC(F)(F)F)c(-c5c(C)ccc6[nH]ncc56)c(C5CC5)cc34)CC2)C1 [Compound 244] | < 300 nM
8 | C=CC(=O)N1CC2(CCN(c3nc(N(C)CCN4CC[C@H](F)C4)nc4c(OCC(F)(F)F)c(-c5c(C)ccc6[nH]ncc56)c(C5CC5)cc34)CC2)C1 [Compound 236] | < 300 nM
9 | C=C(F)C(=O)N1CC2(CCN(c3nc(N4CC5(CCN(CCC#N)CC5)C4)nc4c(OCC(F)(F)F)c(-c5c(C)ccc6[nH]ncc56)c(C5CC5)cc34)CC2)C1 [Compound 88] | 300 to 1000 nM
10 | C=C(C(=O)N1CC2(CCN(c3nc(OC4CCN(CCOC)CC4)nc4c(OCC(F)(F)F)c(-c5c(C)ccc6[nH]ncc56)c(C5CC5)cc34)CC2)C1)n1ccnc1 [Compound 22] | 300 to 1000 nM
11 | C=CC(=O)N1CC2(CCN(c3nc(N(C)CCN4CC(C)C4)nc4c(OCC(F)(F)F)c(-c5c(C)ccc6[nH]ncc56)c(C5CC5)cc34)CC2)C1 [Compound 227] | < 300 nM

Second part, the compound after the results:

Row | IC50 | SMILES
12 | < 300 nM | C=CC(=O)N1CC2(CCN(c3nc(N4CC5(C4)[C@@H](O)CCN5C)nc4c(OCC(F)(F)F)c(-c5c(C)ccc6[nH]ncc56)c(C5CC5)cc34)CC2)C1 [Compound 271]
13 | < 300 nM | C=CC(=O)N1CC2(CCN(c3nc(N4CC5(CCN(CCOC)C5)C4)nc4c(OCC(F)(F)F)c(-c5c(C)ccc6[nH]ncc56)c(C5CC5)cc34)CC2)C1 [Compound 75]
14 | < 300 nM | C=CC(=O)N1CC2(CCN(c3nc(N4CC[C@H](N5CCC(C)C5)C4)nc4c(OCC(F)(F)F)c(-c5c(C)ccc6[nH]ncc56)c(C5CC5)cc34)CC2)C1 (stereo partly drawn) [Compound 298]
15 | < 300 nM | C=CC(=O)N1CC2(CCN(c3nc(N4CCC5(CCN(C)C5)C4)nc4c(OCC(F)(F)F)c(-c5c(C)ccc6[nH]ncc56)c(C5CC5)cc34)CC2)C1 (stereo not drawn) [Compound 159]
16 | < 300 nM | C=CC(=O)N1CC2(CCN(c3nc(N4CC5(CC(N6CC[C@@H](C)C6)C5)C4)nc4c(OCC(F)(F)F)c(-c5c(C)ccc6[nH]ncc56)c(C5CC5)cc34)CC2)C1 [Compound 293]
17 | 300 to 1000 nM | C=C(F)C(=O)N1CC2(CCN(c3nc(OC4CCN(CCOC)CC4)nc4c(OCC(F)(F)F)c(-c5c(F)ccc6[nH]cnc56)c(C5CC5)cc34)CC2)C1 [Compound 38]
18 | 300 to 1000 nM | C=CC(=O)N1CC2(CCN(c3nc(N4CC[C@H](N5CC(F)(F)C5)C4)nc4c(OCC(F)(F)F)c(-c5c(C)ccc6[nH]ncc56)c(C5CC5)cc34)CC2)C1 [Compound 205]
19 | < 300 nM | C=C(F)C(=O)N1CC2(CCN(c3nc(N4CC(N5CC(OC)C5)C4)nc4c(OCC(F)(F)F)c(-c5c(C)ccc6[nH]ncc56)c(C5CC5)cc34)CC2)C1 [Compound 145]
20 | < 300 nM | C=C(F)C(=O)N1CC2(CCN(c3nc(OC4CCN(C)CC4)nc4c(OCC(F)(F)F)c(-c5c(C)ccc6[nH]ncc56)c(C5CC5)cc34)CC2)C1 [Compound 61]
21 | 300 to 1000 nM | C=CC(=O)N1CC2(CCN(c3nc(OC4CCN(CCOC)CC4)nc4c(OCC(F)(F)F)c(-c5c(F)ccc6[nH]cnc56)c(C5CC5)cc34)CC2)C1 [Compound 37]

Tested on: pERK level in H358 cells
Experiment: pERK and ERK protein content assay in H358 cells (ELISA)
Type: cell-based
Conditions: Homo sapiens, NCI-H358, compound 1 μM, 24 h, pERK/ERK ratio compared with DMSO group, read-out: Inhibition rate (%) of pERK level
How it was run: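 H358 cells grown one day, then treated 24 h with compound at 1 μM. pERK and ERK in lysates measured by ELISA; pERK/ERK ratio expressed as percent inhibition versus DMSO.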

Row | SMILES | inhibition at 1 µM
22 | C=CC(=O)N1CC2(CCN(c3nc(N4CC5(C4)[C@@H](O)CCN5C)nc4c(OCC(F)(F)F)c(-c5c(C)ccc6[nH]ncc56)c(C5CC5)cc34)CC2)C1 [Compound 271] | > 90%
23 | C=CC(=O)N1CC2(CCN(c3nc(N4CC(N5CC[C@H](C#N)C5)C4)nc4c(OCC(F)(F)F)c(-c5c(C)ccc6[nH]ncc56)c(C5CC5)cc34)CC2)C1 [Compound 257] | > 90%
24 | C=CC(=O)N1CC2(CCN(c3nc(N4CCC5(CN(CCOC)C5)C4)nc4c(OCC(F)(F)F)c(-c5c(C)ccc6[nH]ncc56)c(C5CC5)cc34)CC2)C1 [Compound 99] | > 90%
25 | C=CC(=O)N1CC2(CCN(c3nc(N4CC[C@@H](N5CCCCC5)C4)nc4c(OCC(F)(F)F)c(-c5c(C)ccc6[nH]ncc56)c(C5CC5)cc34)CC2)C1 [Compound 208] | > 90%
26 | C=C(F)C(=O)N1CC2(CCN(c3nc(N4CC5(CCN(CCCOC)CC5)C4)nc4c(OCC(F)(F)F)c(-c5c(C)ccc6[nH]ncc56)c(C5CC5)cc34)CC2)C1 [Compound 96] | > 90%
27 | C=CC(=O)N1CC2(CCN(c3nc(N4CC5(CCN(CCOC)C5)C4)nc4c(OCC(F)(F)F)c(-c5c(C)ccc6[nH]ncc56)c(C5CC5)cc34)CC2)C1 [Compound 75] | > 90%
28 | C=CC(=O)N1CC2(CCN(c3nc(N4CC[C@H](N5CCC(C)C5)C4)nc4c(OCC(F)(F)F)c(-c5c(C)ccc6[nH]ncc56)c(C5CC5)cc34)CC2)C1 (stereo partly drawn) [Compound 298] | > 90%
29 | C=CC(=O)N1CC2(CCN(c3nc(N4CCC5(CCN(C)C5)C4)nc4c(OCC(F)(F)F)c(-c5c(C)ccc6[nH]ncc56)c(C5CC5)cc34)CC2)C1 (stereo not drawn) [Compound 159] | > 90%
30 | C=CC(=O)N1CC2(CCN(c3nc(N4CC5(CC(N6CC[C@@H](C)C6)C5)C4)nc4c(OCC(F)(F)F)c(-c5c(C)ccc6[nH]ncc56)c(C5CC5)cc34)CC2)C1 [Compound 293] | > 90%
31 | C=C(F)C(=O)N1CC2(CCN(c3nc(OC4CCN(CCOC)CC4)nc4c(OCC(F)(F)F)c(-c5c(F)ccc6[nH]cnc56)c(C5CC5)cc34)CC2)C1 [Compound 38] | > 90%
32 | C=CC(=O)N1CC2(CCN(c3nc(N4CC(N5CCCC5)C4)nc4c(OCC(F)(F)F)c(-c5c(C)c(F)cc6[nH]ncc56)c(C5CC5)cc34)CC2)C1 [Compound 220] | > 90%
33 | C=CC(=O)N1CC2(CCN(c3nc(OC4CC5CCC4N5C)nc4c(OCC(F)(F)F)c(-c5c(C)ccc6[nH]ncc56)c(C5CC5)cc34)CC2)C1 (stereo not drawn) [Compound 308] | > 90%
34 | C=CC(=O)N1CC2(CCN(c3nc(N4CC[C@H](N5CC(F)(F)C5)C4)nc4c(OCC(F)(F)F)c(-c5c(C)ccc6[nH]ncc56)c(C5CC5)cc34)CC2)C1 [Compound 205] | 50 to 90%
35 | C=CC(=O)N1CC2(CCN(c3nc(N4CC(N5CC(N(C)C)C5)C4)nc4c(OCC(F)(F)F)c(-c5c(C)ccc6[nH]ncc56)c(C5CC5)cc34)CC2)C1 [Compound 244] | > 90%
36 | C=CC(=O)N1CC2(CCN(c3nc(N(C)CCN4CC[C@H](F)C4)nc4c(OCC(F)(F)F)c(-c5c(C)ccc6[nH]ncc56)c(C5CC5)cc34)CC2)C1 [Compound 236] | > 90%
37 | C=C(F)C(=O)N1CC2(CCN(c3nc(N4CC(N5CC(OC)C5)C4)nc4c(OCC(F)(F)F)c(-c5c(C)ccc6[nH]ncc56)c(C5CC5)cc34)CC2)C1 [Compound 145] | > 90%
38 | C=C(F)C(=O)N1CC2(CCN(c3nc(N4CC5(CCN(CCC#N)CC5)C4)nc4c(OCC(F)(F)F)c(-c5c(C)ccc6[nH]ncc56)c(C5CC5)cc34)CC2)C1 [Compound 88] | 50 to 90%
39 | C=C(C(=O)N1CC2(CCN(c3nc(OC4CCN(CCOC)CC4)nc4c(OCC(F)(F)F)c(-c5c(C)ccc6[nH]ncc56)c(C5CC5)cc34)CC2)C1)n1ccnc1 [Compound 22] | 50 to 90%
40 | C=C(F)C(=O)N1CC2(CCN(c3nc(OC4CCN(C)CC4)nc4c(OCC(F)(F)F)c(-c5c(C)ccc6[nH]ncc56)c(C5CC5)cc34)CC2)C1 [Compound 61] | > 90%
41 | C=CC(=O)N1CC2(CCN(c3nc(OC4CCN(CCOC)CC4)nc4c(OCC(F)(F)F)c(-c5c(F)ccc6[nH]cnc56)c(C5CC5)cc34)CC2)C1 [Compound 37] | 50 to 90%
42 | C=CC(=O)N1CC2(CCN(c3nc(N(C)CCN4CC(C)C4)nc4c(OCC(F)(F)F)c(-c5c(C)ccc6[nH]ncc56)c(C5CC5)cc34)CC2)C1 [Compound 227] | > 90%
